Assay results from paper PMC9368227, “Investigation of Radiotracer Metabolic Stability In Vitro with CYP-Overexpressing Hepatoma Cell Lines” (Cells, 2022).

Columns and labels:
[1] = Radiotracer incubation in buffer only (control, without any cell line), radio-TLC; assay type: in vitro ADME; settings: reference incubation without any cell lines
Description: HepG2 cells were cultured in DMEM GlutaMax (Gibco, Paisley, UK) with 10% fetal calf serum (FCS) and with selective antibiotics (penicillin/streptomycin for wildtype, Zeocin (InvivoGen, San Diego, CA, USA) for CYP1A2, and Blasticidin (Gibco, Carlsbad, CA, USA) for CYP2C19 and CYP3A4 cultures). As a negative control, cultures of CHO cultivated in Ham’s F-12 medium (Gibco) with 10% FCS and 2 mM glutamine were added for the radiotracer experiments. Cells were handled under a laminar flow hood (Thermo Scientific^TM Safe 2020, Langenselbold, Germany) and were split once or twice a week by trypsinization. Cell cultures were stored horizontally in a humidified incubator (Heracell240i) at 37 °C and 5% CO2. During the time of experimental work, the utilized cell lines were regularly checked for mycoplasma. Cells were seeded in duplicates into a 96-well plate (CellStar®) with a density of 3 × 10^5 cells/well and cultured until the next day at 37 °C and 5% CO2. Cell density was determined with a cell counter (CASY® Model TT from Schärfe System, Reutlingen, Germany). Before the addition of substrates, cells were washed twice with Krebs–Henseleit buffer (KHB). The HEPES-supplemented Krebs–Henseleit buffer (pH 7.4, KHB) was freshly prepared using HEPES (5.95 g/L), D-glucose (2.0 g/L), magnesium sulfate (0.141 g/L), potassium dihydrogenphosphate (0.16 g/L), potassium chloride (0.35 g/L), sodium chloride (6.9 g/L), calcium chloride dihydrate (0.373 g/L), and sodium bicarbonate (2.1 g/L), followed by adjustment to pH 7.4 with NaOH. […]
(§1) Incubations with radiotracer compounds were conducted, on the one hand, with radioactive ^18F-labeled compounds alone (time dependency) and, on the other hand, in the presence of 50 µM nonradioactive reference (carrier addition). For the investigation of a time-dependent metabolite formation, 2 µL aliquots were withdrawn from the supernatant, directly spotted onto the TLC plate, and analyzed as described above. […]

HepG2 CYP1A2 = experiment: Radiotracer metabolic stability, CYP1A2-overexpressing HepG2 cells; assay type: in vitro ADME, human; settings: HepG2 CYP1A2, up to 2 h; radio-TLC
Description: (§2) CYP-overexpressing human hepatocellular carcinoma cells (HepG2) were previously generated on the basis of subcloning human CYP1A2 [18], CYP2C19 [20], and CYP3A4 [21] cDNA into a lentiviral expression vector. The cDNA expression in the resulting vector was controlled by the human cytomegalovirus (CMV) promoter. The lentivirus expression vectors were used to produce recombinant lentivirus particles according to standard methods to infect HepG2 cells. Infected cells were selected with 3 µg/mL blasticidin for CYP2C19 and CYP3A4 and 500 µg/mL zeocin for CYP1A2 overexpression 48 h after infection. Within 3–4 weeks, antibiotic-resistant cell colonies were picked to obtain single cell-derived HepG2 clones. For more detailed information on the generation procedure of CYP-overexpressing HepG2 cells, see Steinbrecht et al..
(§3) HepG2 cells were cultured in DMEM GlutaMax (Gibco, Paisley, UK) with 10% fetal calf serum (FCS) and with selective antibiotics (penicillin/streptomycin for wildtype, Zeocin (InvivoGen, San Diego, CA, USA) for CYP1A2, and Blasticidin (Gibco, Carlsbad, CA, USA) for CYP2C19 and CYP3A4 cultures). […] Cell density was determined with a cell counter (CASY® Model TT from Schärfe System, Reutlingen, Germany). […]
as §1
UPLC–MS analyses were performed to verify the degradation behavior of the test compounds and to gain insights into the identity of the formed metabolites. […] Additionally, incubations with the nonradioactive references were carried out with 100 nM or 50 µM (according to the carrier-added samples) and analyzed. UPLC–MS/MS was performed using System 2 (55% isocratic elution for quantification of intact compound, or 25–75% gradient for nonradioactive metabolite analysis). […]

HepG2 CYP2C19 = experiment: Radiotracer metabolic stability, CYP2C19-overexpressing HepG2 cells; assay type: in vitro ADME, human; settings: radio-TLC
Description: as §2
HepG2 cells were cultured in DMEM GlutaMax (Gibco, Paisley, UK) with 10% fetal calf serum (FCS) and with selective antibiotics (penicillin/streptomycin for wildtype, Zeocin (InvivoGen, San Diego, CA, USA) for CYP1A2, and Blasticidin (Gibco, Carlsbad, CA, USA) for CYP2C19 and CYP3A4 cultures). As a negative control, cultures of CHO cultivated in Ham’s F-12 medium (Gibco) with 10% FCS and 2 mM glutamine were added for the radiotracer experiments. Cells were handled under a laminar flow hood (Thermo Scientific^TM Safe 2020, Langenselbold, Germany) and were split once or twice a week by trypsinization. Cell cultures were stored horizontally in a humidified incubator (Heracell240i) at 37 °C and 5% CO2. During the time of experimental work, the utilized cell lines were regularly checked for mycoplasma. Cells were seeded in duplicates into a 96-well plate (CellStar®) with a density of 3 × 10^5 cells/well and cultured until the next day at 37 °C and 5% CO2. Cell density was determined with a cell counter (CASY® Model TT from Schärfe System, Reutlingen, Germany). Before the addition of substrates, cells were washed twice with Krebs–Henseleit buffer (KHB). The HEPES-supplemented Krebs–Henseleit buffer (pH 7.4, KHB) was freshly prepared using HEPES (5.95 g/L), D-glucose (2.0 g/L), magnesium sulfate (0.141 g/L), potassium dihydrogenphosphate (0.16 g/L), potassium chloride (0.35 g/L), sodium chloride (6.9 g/L), calcium chloride dihydrate (0.373 g/L), and sodium bicarbonate (2.1 g/L), followed by adjustment to pH 7.4 with NaOH. The utilized substances within this study were neither found (see Supplementary Materials, Figure S14) nor reported to be cytotoxic within the utilized concentration range and incubation duration.
Incubations with radiotracer compounds were conducted, on the one hand, with radioactive ^18F-labeled compounds alone (time dependency) and, on the other hand, in the presence of 50 µM nonradioactive reference (carrier addition). For the investigation of a time-dependent metabolite formation, 2 µL aliquots were withdrawn from the supernatant, directly spotted onto the TLC plate, and analyzed as described above. The same procedure was performed for carrier-added samples.
UPLC–MS analyses were performed to verify the degradation behavior of the test compounds and to gain insights into the identity of the formed metabolites. Using radiotracer incubation samples, 40 µL aliquots of the carrier-added incubations were withdrawn followed by addition of 160 µL of ACN and centrifugation (14,000 rpm (18,800–20,800× g), 4 °C, 5 min). Samples were frozen at −20 °C, and activity was allowed to decay before further mass-spectrometric analyses. Additionally, incubations with the nonradioactive references were carried out with 100 nM or 50 µM (according to the carrier-added samples) and analyzed. UPLC–MS/MS was performed using System 2 (55% isocratic elution for quantification of intact compound, or 25–75% gradient for nonradioactive metabolite analysis). The MRM mode was optimized with a solution of respective reference compounds diluted in eluent. […]

HepG2 CYP3A4 = experiment: Radiotracer metabolic stability, CYP3A4-overexpressing HepG2 cells; assay type: in vitro ADME, human; settings: HepG2 CYP3A4; radio-TLC
Description: as §2
as §3, with “cultures). As a negative control, cultures of CHO cultivated in Ham’s F-12 medium (Gibco) with 10% FCS and 2 mM glutamine were added for the radiotracer experiments.” for “cultures).”

| Defluorination without additional enzymes in the incubation buffer (KHB) [1] | Metabolic turnover / stability of radiotracer (in words) (HepG2 CYP1A2) | Metabolic turnover / stability of radiotracer (in words) (HepG2 CYP2C19; HepG2 CYP2C19, up to 2 h) | Summarized percentage of metabolites (HepG2 CYP3A4) | SMILES | Defluorination (HepG2 CYP2C19; 1 h incubation) |
| --- | --- | --- | --- | --- | --- |
| to a minor extent | – | – | – | [2H]C([2H])([18F])c1cc(-c2ccc(C)cc2)n(-c2ccc(S(C)(=O)=O)cc2)n1 [[^18F]2, 3-([D2, ^18F]fluoromethyl)-1-[4-(methylsulfonyl)phenyl]-5-(p-tolyl)-1H-pyrazole] | – |
| – | pronounced slower degradation | pronounced slower degradation | below 3% | Cc1ccc(-c2cc(CC[18F])nn2-c2ccc(S(C)(=O)=O)cc2)cc1 [[^18F]3, 3-([^18F]fluoroethyl)-1-[4-(methylsulfonyl)phenyl]-5-(p-tolyl)-1H-pyrazole] | only noted during incubation with HepG2 CYP2C19 |
